The target of test [1] is T1, human recombinant CD3ε protein (Homo sapiens, UniProt P07766).
T1 construct: purchased Sino Biological
The experiment in a line: Biopanning of Ph.D.-7 phage display peptide library, sequencing of plaques. Conditions: after the 5th round of biopanning, 18 out of 20 plaques; phage clone displaying the sequence. On the procedure:
1.2 Biopanning: Screening of the Ph.D.-7 phage display peptide library on human recombinant CD3ε protein as the target protein was carried out according to the manufacturer's protocol with modifications. Briefly, 50 μl of a 50% aqueous suspension of Pierce protein A/G magnetic beads was washed with 1 ml of TBST washing buffer (tris-buffered saline with 0.1% tween) on a magnetic separator and blocked in blocking buffer (0.1 M NaHCO3 (pH 8.6) with 0.5% (w/v) BSA) for 1 h at 4° C. on a rotator. Two picomoles of target protein was mixed with 10^11 pfu (plaque-forming unit) of the phage library in 200 μl of TBST buffer and incubated for 15 minutes at room temperature on a rotator and then incubated with pre-washed and pre-blocked magnetic beads for 15 minutes at room temperature on a rotator. After the microbeads were washed vigorously for 15 times with 1 ml TBST, the bound phage was eluted by 1 ml of glycine buffer (0.2 M Glycine-HCl (pH 2.2)+0.1% (w/v) BSA) and neutralized by addition of 150 μl of 1 M Tris-HCl (pH 9.1). […]
1.3 DNA Sequencing of Phage Clones: After the third and fifth round of biopanning, the ssDNA of selected phage clones was harvested following the standard protocol (NEB). […] The purified DNA of each clone was sequenced by Sanger sequencing (UAB Genomics Core Laboratories) using the −96 gIII primer and analyzed using Geneious Prime 2019 software suite.

Test [2] has as its target T2, CD3ε expressed on Jurkat cells (Homo sapiens, UniProt P07766).
T2 construct: against CD3ε expressed on Jurkat cells; host or cells: Jurkat T cells (E6-1)
The experiment in a line: Binding assay of peptide tetramers on Jurkat cells by flow cytometry. Conditions: for Kd: peptide tetramer on Alexa Fluor 488 streptavidin, CD3ε-expressing Jurkat cells, read-out: affinity (Kd); for binding of peptide tetramers to Jurkat cells: varying tetramer concentrations, 30 minutes on ice. On the procedure: The results were analyzed using FlowJo software.
A general note: A flow cytometer gives signals particle by particle.

Test [3] relates to 2PK3 mouse B lymphoma cells. Conditions: varying tetramer concentrations; cells lack TCR-CD3.

T2 sequence (P07766 23-207): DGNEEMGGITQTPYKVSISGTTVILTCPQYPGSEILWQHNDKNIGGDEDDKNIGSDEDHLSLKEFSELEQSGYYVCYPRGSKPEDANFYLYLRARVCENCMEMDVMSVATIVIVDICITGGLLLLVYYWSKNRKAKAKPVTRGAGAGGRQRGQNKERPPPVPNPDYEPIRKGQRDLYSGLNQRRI
T2 sequence (P09693 23-182 partner): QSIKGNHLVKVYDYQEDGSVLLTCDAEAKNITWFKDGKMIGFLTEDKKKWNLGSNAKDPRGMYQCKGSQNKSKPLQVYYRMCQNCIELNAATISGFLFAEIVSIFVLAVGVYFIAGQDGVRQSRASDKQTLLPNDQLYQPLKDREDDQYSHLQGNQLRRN
T2 sequence (P04234 22-171 partner): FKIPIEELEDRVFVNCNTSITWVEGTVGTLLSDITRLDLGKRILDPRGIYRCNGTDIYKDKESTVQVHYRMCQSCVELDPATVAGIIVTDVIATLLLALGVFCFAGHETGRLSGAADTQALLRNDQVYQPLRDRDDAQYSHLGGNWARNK
T2 sequence (P20963 22-164 partner): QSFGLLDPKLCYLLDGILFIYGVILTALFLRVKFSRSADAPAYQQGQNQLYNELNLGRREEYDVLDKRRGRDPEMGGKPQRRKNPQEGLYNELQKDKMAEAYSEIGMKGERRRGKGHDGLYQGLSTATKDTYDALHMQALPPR
T2 sequence (P01848 whole entry partner): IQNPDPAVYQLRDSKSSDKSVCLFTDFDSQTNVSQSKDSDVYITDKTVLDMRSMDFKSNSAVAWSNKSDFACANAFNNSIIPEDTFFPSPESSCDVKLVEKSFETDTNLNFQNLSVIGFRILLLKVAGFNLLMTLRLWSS
T2 sequence (P01850 whole entry partner): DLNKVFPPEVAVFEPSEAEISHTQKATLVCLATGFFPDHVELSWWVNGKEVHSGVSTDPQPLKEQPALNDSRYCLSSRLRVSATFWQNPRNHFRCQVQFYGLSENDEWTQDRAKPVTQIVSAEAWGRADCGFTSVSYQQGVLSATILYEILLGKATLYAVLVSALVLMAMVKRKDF
T1 sequence (P07766 23-207): as the sequence (P07766 23-207) above

WSLGYTG [anti-CD3ε peptide 13]: in test [1], the “share of tested plaques occupied by the clone” value was 90%.
Regarding “FWSSPQMGGGS [SEQ ID NO: 30]-PEG6-K-biotin [anti-CD3ε peptide 11 tetramer]”, in test [2], the Kd was approximately 100 µM and the “binding of peptide tetramers to Jurkat cells” value is on record as “incremental binding to the Jurkat cells in a dose-dependent manner”. Moreover, the “binding of peptide tetramers to 2PK3 cells” value in test [3] is “no specific attachment”.
Taken in the same sequence, the figures for “WSLGYTGGGGS [SEQ ID NO: 31]-PEG6-K-biotin [anti-CD3ε peptide 13 tetramer]” were approximately 100 µM, “incremental binding to the Jurkat cells in a dose-dependent manner” and “no specific attachment”.

By Kd is commonly meant the concentration at which binding is half-saturated.

The values are drawn from US12006373B1, “Identification and evaluation of novel peptide ligands specific to human CD3 epsilon” (Board of Trustees of the University of Alabama, for and on …, priority 2020, dated 2024).
